Measured values reported in patent US20190365843A1, “Antimicrobial Activity of Bioactive Compounds and Their Derivatives” (priority 2018, published 2019).

Columns and labels:
[1] = tested on: E. coli ATCC 25922; experiment: Agar diffusion growth inhibition zone, E. coli ATCC 25922; type: cell-based; details: Escherichia coli, 6 mm = no activity; for zone of inhibition at 100 mg/mL: ATCC25922, 100 mg; for zone of inhibition at 150 mg/mL: ATCC25922, 150 mg
Protocol: (§1) Among the bacterial agents tested Gram positive and Gram negative bacterial groups represented by Staphylococcus aureus and Enterococcus species and pathogenic members of Enterobacteriaceae, Vibronaceae, Aeromonadaceae, Pseudomonadaceae were tested. Freshly sub-cultured bacterial strains were inoculated into peptone water and incubated for 4 hours at 37° C. and adjusted to a turbidity of 0.5 (Gram Negative Bacilli), 1 (Gram Positive Cocci) and 4 (Pus cells, GNB, & few Budding yeast cells) Mc Farland standards (10^8 CFU/ml) respectively.
(§2) The different bioactive compounds and their derivatives were dissolved and diluted with solvents (DMSO), number of subsequent dilutions was performed to obtain different concentrations of the bioactive compounds and their derivatives. (Working Concentrations).
(§3) Agar well diffusion method is widely used to evaluate the antimicrobial activity of plants or other synthetic products. The suspension (microbial inoculum) was used to inoculate into Muller Hinton Agar Petri plates by lawn culture. Well (diameter 6 mm) were punched in the agar by sterile borer and filled with 50 μl of dissolved extracts. Plates were incubated in incubator at 37° C. for 24 hours and measured the growth inhibition zone diameters in mm compared with that of control (DMSO) showing no growth.
(§4) The bioactive compounds were tested with desired concentrations in 6 mm filter paper discs (Whatman, no. 3) were impregnated with 10 μL of each of the different dilutions. The discs were allowed to remain at room temperature until complete diluent evaporation and kept under refrigeration until ready to be used. 10 μL of diluents used to products were used as control. Tests were performed by Agar disk-diffusion testing method, which is the official method used in many clinical microbiology laboratories for routine antimicrobial susceptibility testing.
(§5) Similar to the procedure used in Agar well diffusion method, the suspension (microbial inoculum) was used to inoculate into Muller Hinton Agar Petri plates by lawn culture. Then, filter paper discs (about 6 mm in diameter), containing the test compound at a desired concentration, were placed on the agar surface. The Petri dishes were incubated under suitable incubation conditions.
(§6) Bioactive compounds showing zone of inhibition beyond the size of 6 mm are considered to be having an anti-microbial activity.

[2] = tested on: Pleisiomonas sp.; experiment: Agar diffusion growth inhibition zone, Pleisiomonas sp.; type: cell-based, Pleisiomonas species; details: for zone of inhibition at 100 mg/mL / zone of inhibition at 150 mg/mL: Pleisiomonas sp., 6 mm = no activity; for inhibition of growth: Plesiomonas species
Protocol: as §1, §2, §3, §4, §5, §6

[3] = tested on: Enterococcus sp.; experiment: Agar diffusion growth inhibition zone, Enterococcus sp.; type: cell-based, Enterococcus species; details: 6 mm = no activity
Protocol: as §1, §2, §3, §4, §5, §6

[4] = tested on: Citrobacter sp.; experiment: Agar diffusion growth inhibition zone, Citrobacter sp.; type: cell-based, Citrobacter species; details: 6 mm = no activity
Protocol: as §1, §2, §3, §4, §5, §6

[5] = tested on: Klebsiella sp.; experiment: Agar diffusion growth inhibition zone, Klebsiella sp.; type: cell-based, Klebsiella species; details: 6 mm = no activity
Protocol: as §1, §2, §3, §4, §5, §6

[6] = tested on: Aeromonas sp.; experiment: Agar diffusion growth inhibition zone, Aeromonas sp.; type: cell-based, Aeromonas species; details: Aeromonas sp., 6 mm = no activity
Protocol: as §1, §2, §3, §4, §5, §6

[7] = tested on: Vibrio cholera; experiment: Agar diffusion growth inhibition zone, Vibrio cholera; type: cell-based, Vibrio cholerae; details: Vibrio cholerae
Protocol: (§7) Agar well diffusion method is widely used to evaluate the antimicrobial activity of plants or other synthetic products. The suspension (microbial inoculum) was used to inoculate into Muller Hinton Agar Petri plates by lawn culture. Well (diameter 6 mm) were punched in the agar by sterile borer and filled with 50 μl of dissolved extracts. Plates were incubated in incubator at 37° C. for 24 hours and measured the growth inhibition zone diameters in mm compared with that of control (DMSO) showing no growth. The antimicrobial agent diffuses in the agar medium and inhibits the growth of the microbial strain tested (Valgas et al., (2016) Methods for in vitro evaluating antimicrobial activity: A review. Journal of Pharmaceutical Analysis. 6(2):71-9).
(§8) Similar to the procedure used in Agar well diffusion method, the suspension (microbial inoculum) was used to inoculate into Muller Hinton Agar Petri plates by lawn culture. Then, filter paper discs (about 6 mm in diameter), containing the test compound at a desired concentration, were placed on the agar surface. The Petri dishes were incubated under suitable incubation conditions. Generally, antimicrobial agent diffuses into the agar and inhibits germination and growth of the test microorganism and then the diameters of inhibition growth zones are measured (Valgas et al., (2007) Screening methods to determine antibacterial activity of natural products. Brazilian Journal of Microbiology. 38:369-80; Balouiri M et al., (2016) Methods for in vitro evaluating antimicrobial activity: A review. Journal of Pharmaceutical Analysis. 6(2):71-9).

[8] = tested on: Shigella sp.; experiment: Agar diffusion growth inhibition zone, Shigella sp.; type: cell-based, Shigella species; details: Shigella
Protocol: as §7, §8

[9] = tested on: Candida abicans; experiment: Agar diffusion growth inhibition zone, Candida abicans; type: cell-based, Candida albicans; details: 6 mm = no activity
Protocol: as §1, §2, §3, §4, §5, §6

[10] = tested on: S. aureus; experiment: Agar diffusion growth inhibition zone, S. aureus; type: cell-based, Staphylococcus aureus; details: for zone of inhibition at 100 mg/mL / zone of inhibition at 150 mg/mL: Staphylococcus aureus, 6 mm = no activity
Protocol: as §1, §2, §3, §4, §5, §6

[11] = tested on: Pseudomonas sp.; experiment: Agar diffusion growth inhibition zone, Pseudomonas sp.; type: cell-based, Pseudomonas species; details: Pseudomonas
Protocol: as §7, §8

[12] = tested on: EAEC; experiment: Agar diffusion growth inhibition zone, EAEC; type: cell-based, Enteroaggregative E. coli; details: Escherichia coli, 6 mm = no activity
Protocol: as §1, §2, §3, §4, §5, §6

[13] = tested on: Salmonella typhimurium; experiment: Agar diffusion growth inhibition zone, Salmonella typhimurium; type: cell-based; details: Salmonella enterica, 6 mm = no activity
Protocol: as §1, §2, §3, §4, §5, §6

[14] = tested on: ETEC; experiment: Agar diffusion growth inhibition zone, ETEC; type: cell-based, Enterotoxigenic E. coli; details: for inhibition of growth: ETEC; for zone of inhibition at 100000 µg/disc / zone of inhibition at 150000 µg/disc: Escherichia coli
Protocol: as §7, §8

[15] = tested on: Proteus sp.; experiment: Agar diffusion growth inhibition zone, Proteus sp.; type: cell-based, Proteus species; details: for zone of inhibition at 150 mg/mL: Proteus sp., 6 mm = no activity; for zone of inhibition: Proteus species, at both concentrations of 100 mg and 150 mg
Protocol: as §1, §2, §3, §4, §5, §6

Row | Molecule | zone of inhibition at 100 mg/mL [1] [mm] | zone of inhibition at 100 mg/mL [2] [mm] | inhibition of growth [2] | zone of inhibition at 100 mg/mL [3] [mm] | zone of inhibition at 100 mg/mL [4] [mm] | zone of inhibition at 100 mg/mL [5] [mm] | zone of inhibition at 100 mg/mL [6] [mm] | zone of inhibition at 100000 µg/disc [7] [mm] | zone of inhibition at 100000 µg/disc [8] [mm] | zone of inhibition at 100 mg/mL [9] [mm] | zone of inhibition at 100 mg/mL [10] [mm] | zone of inhibition at 100000 µg/disc [11] [mm] | zone of inhibition at 100 mg/mL [12] [mm] | zone of inhibition at 100 mg/mL [13] [mm] | zone of inhibition at 150 mg/mL [1] [mm] | zone of inhibition at 150 mg/mL [2] [mm] | zone of inhibition at 150 mg/mL [3] [mm] | zone of inhibition at 150 mg/mL [4] [mm] | zone of inhibition at 150 mg/mL [5] [mm] | zone of inhibition at 150 mg/mL [6] [mm] | other results
1 | O=C(/C=C/c1ccc(O)cc1)COC(=O)/C=C/c1ccc(O)cc1 [compound 13, Bisdemethoxycalebin- A] | 6 | 9 | inhibited | 6 | 6 | 6 | 6 | 6 | 6 | 6 | 6 | 6 | 6 | 6 |  |  |  |  |  |  | 
2 | COc1cc(/C=C/C(=O)OCC(=O)/C=C/c2ccc(O)cc2)ccc1O [compound 12, Demethoxycalebin- A2] | 6 | 10 |  | 6 | 6 | 6 | 6 | 6 | 6 | 6 | 6 | 6 | 6 | 6 |  |  |  |  |  |  | 
3 | COc1cc(/C=C/C(=O)CC(=O)/C=C/c2ccc(OC(C)=O)c(OC)c2)ccc1OC(C)=O [compound 4, O,O′- Diacetylcurcumin] | 6 | 6 |  | 6 | 6 | 6 | 6 | 6 | 6 | 6 | 6 | 6 | 6 | 6 | 6 | 6 | 6 | 6 | 6 | 6 | zone of inhibition at 150000 µg/disc [7]: 6 mm; inhibition of growth [14]: significantly inhibited the growth; zone of inhibition at 100000 µg/disc [14]: 9 mm; zone of inhibition at 150000 µg/disc [14]: 9 mm; zone of inhibition at 150 mg/mL [15]: 6 mm; zone of inhibition at 150000 µg/disc [8]: 6 mm; zone of inhibition at 150 mg/mL [9]: 6 mm; zone of inhibition at 150 mg/mL [10]: 6 mm; zone of inhibition at 150000 µg/disc [11]: 6 mm; zone of inhibition at 150 mg/mL [12]: 6 mm; zone of inhibition at 150 mg/mL [13]: 6 mm
4 | COc1cc(CCc2cc(CCc3ccc(O)c(OC)c3)on2)ccc1O [compound 8, Tetrahydrocurcumin Isoxazole] | 6 | 6 |  | 6 | 6 | 6 | 6 | 6 | 6 | 6 | 6 | 6 | 8 | 6 | 6 | 6 | 6 | 6 | 6 | 6 | zone of inhibition at 150000 µg/disc [7]: 6 mm; zone of inhibition at 150 mg/mL [15]: 6 mm; zone of inhibition at 150000 µg/disc [8]: 6 mm; zone of inhibition at 150 mg/mL [9]: 6 mm; zone of inhibition at 150 mg/mL [10]: 6 mm; zone of inhibition at 150000 µg/disc [11]: 6 mm; zone of inhibition at 150 mg/mL [12]: 8 mm; zone of inhibition at 150 mg/mL [13]: 6 mm
5 | O=C(/C=C/c1ccc(O)cc1)CC(=O)/C=C/c1ccc(O)cc1 [compound 3, Bis- demethoxycurcumin] | 6 | 9 | inhibited | 6 | 6 | 6 | 6 | 6 | 6 | 6 | 6 | 6 | 6 | 6 | 6 | 9 | 6 | 6 | 6 | 6 | zone of inhibition at 150000 µg/disc [7]: 6 mm; inhibition of growth [14]: significantly inhibited the growth; zone of inhibition at 100000 µg/disc [14]: 9 mm; zone of inhibition at 150000 µg/disc [14]: 9 mm; zone of inhibition at 150 mg/mL [15]: 7 mm; zone of inhibition [15]: 7 mm; zone of inhibition at 150000 µg/disc [8]: 6 mm; zone of inhibition at 150 mg/mL [9]: 6 mm; zone of inhibition at 150 mg/mL [10]: 6 mm; zone of inhibition at 150000 µg/disc [11]: 6 mm; zone of inhibition at 150 mg/mL [12]: 6 mm; zone of inhibition at 150 mg/mL [13]: 6 mm
6 | COc1cc(/C=C/C(=O)CC(=O)/C=C/c2ccc(O)c(OC)c2)ccc1O [compound 1, Curcumin] | 6 | 10 | inhibited | 6 | 6 | 6 | 6 | 10 | 6 | 6 | 10 | 6 | 6 | 6 | 6 | 10 | 6 | 6 | 6 | 6 | inhibition of growth [7]: inhibited the growth; zone of inhibition at 150000 µg/disc [7]: 6 mm; inhibition of growth [14]: significantly inhibited the growth; zone of inhibition at 100000 µg/disc [14]: 10 mm; zone of inhibition at 150000 µg/disc [14]: 10 mm; zone of inhibition at 150 mg/mL [15]: 11 mm; zone of inhibition [15]: 11 mm; zone of inhibition at 150000 µg/disc [8]: 6 mm; zone of inhibition at 150 mg/mL [9]: 6 mm; zone of inhibition at 150 mg/mL [10]: 10 mm; zone of inhibition ([10]; concentration not given): 10 mm; zone of inhibition at 150000 µg/disc [11]: 6 mm; zone of inhibition at 150 mg/mL [12]: 6 mm; zone of inhibition at 150 mg/mL [13]: 6 mm
7 | Demethoxycalebin-A |  |  | inhibited |  |  |  |  |  |  |  |  |  |  |  |  |  |  |  |  |  | 
8 | COc1cc(/C=C/C(=O)COC(=O)/C=C/c2ccc(O)cc2)ccc1O [compound 11, Demethoxycalebin- A1] | 6 | 6 |  | 6 | 6 | 6 | 6 | 6 | 6 | 6 | 6 | 6 | 6 | 6 |  |  |  |  |  |  | 
